Test results from ChEMBL document CHEMBL5230136, “A review: Biologically active 3,4-heterocycle-fused coumarins” (Eur J Med Chem, 2021).
pIC50, pKi: −log10 of the molar value. ≈ marks a conversion by molar mass, not a printed value. Where “and” joins values, the source holds several entries; their conditions need not be identical. Equal entries are not always repeated. Blank lines part the entries; values can stand above or below the compound they belong to.

Key:
Staphylococcus simulans = experiment: Antibacterial activity against Staphylococcus simulans assessed as zone of inhibition at 20 mg/ml; assay type: functional; details: read-out: IZ
Staphylococcus aureus [1] = experiment: Antibacterial activity against Staphylococcus aureus assessed as zone of inhibition at 20 mg/ml; assay type: functional; details: read-out: IZ
Candida albicans = experiment: […] activity against Candida albicans assessed as zone of inhibition at 20 mg/ml; assay type: functional; details: read-out: IZ
Staphylococcus aureus [2] = experiment: Antibacterial activity against Staphylococcus aureus by dilution assay; assay type: functional
MCF7 [3] = experiment: Anticancer activity against human MCF7 cells assessed as inhibition of cell proliferation measured after 48 hrs by MTT assay; assay type: functional, cell-based; details: MCF7, 48 h
[4] = Antioxidant activity assessed as DPPH radical scavenging activity; assay type: functional
[5] = Induction of angiogenesis in human HUVEC cells; assay type: functional
MES-SA = experiment: Cytotoxicity against human MES-SA cells assessed as reduction in cell viability incubated for 72 hrs by MTT assay; assay type: functional, cell-based
RAW264.7 = experiment: Anti-inflammatory activity against mouse RAW264.7 cells assessed as inhibition of LPS-induced NO production at 50 ug/ml relative to control; assay type: functional; design: scale not given: the % may be the effect or the level left; details: dose 50 µg/ml
Mus musculus = experiment: Antiinflammatory activity in Swiss albino mouse model of carrageenan-induced paw edema assessed as reduction in paw edema; assay type: functional; design: scale not given: the % may be the effect or the level left
Ehrlich = experiment: cells; details: Mus musculus
Description: Anticancer activity against mouse EAC cells assessed as reduction in cell viability

Rattus norvegicus = species: Rattus norvegicus; experiment: Antifibrotic activity in Sprague-Dawley rat model of BDL induced hepatic fibrosis assessed as […] fibrotic potential; assay type: functional
MCF7 [6] = experiment: Cytotoxicity activity against human MCF7 cells assessed as decreased cell viability; assay type: functional, cell-based
[7] = target: Dopamine receptors; D2 & D4 (Homo sapiens, UniProt P14416+P21917); experiment: Binding affinity to human D2/D4 receptor assessed as inhibition constant; assay type: protein assay
D(4) dopamine receptor = D(4) dopamine receptor (Homo sapiens, UniProt P21917); experiment: Binding affinity to D4 receptor (unknown origin) assessed as inhibition constant
Plasmodium falciparum [8] = experiment: Antimalarial activity against Plasmodium falciparum by LDH assay; assay type: functional, organism-based
Plasmodium falciparum [9] = experiment: Antimalarial activity against Plasmodium falciparum Dd2 by HRP2 assay; assay type: functional, organism-based
Bacillus cereus [10] = experiment: Antibacterial activity against Bacillus cereus assessed as reduction in microbial growth after 18 hrs by MTT based broth dilution method; assay type: functional, organism-based
[11] = Antiproliferative activity against human U87 cells assessed as reduction in cell viability by MTT assay; assay type: functional, cell-based, U-87MG ATCC; details: U-87 MG
Serratia marcescens = experiment: Antibacterial activity against Serratia marcescens assessed as zone of inhibition; assay type: functional
Penicillium chrysogenum = experiment: Antifungal activity against Penicillium chrysogenum assessed as zone of inhibition; assay type: functional
Proteus mirabilis = experiment: Antibacterial activity against Proteus mirabilis assessed as zone of inhibition; assay type: functional
Bacillus cereus [12] = experiment: Antibacterial activity against Bacillus cereus assessed as zone of inhibition; assay type: functional
Aspergillus ochraceus [13] = experiment: Antifungal activity against Aspergillus ochraceus assessed as zone of inhibition at 20 ug/ml; assay type: functional; details: read-out: IZ
Staphylococcus aureus [14] = experiment: Antibacterial activity against Staphylococcus aureus assessed as zone of inhibition; assay type: functional
Aspergillus ochraceus [15] = experiment: Antifungal activity against Aspergillus ochraceus assessed as zone of inhibition; assay type: functional
Raji = experiment: Antiproliferative activity against human Raji cells assessed as reduction in cell growth incubated for 72 hrs by MTT assay; assay type: functional, cell-based
LS180 [16] = experiment: Anticancer activity against human LS180 assessed as inhibition in cell viability; assay type: functional, cell-based
MCF7 [17] = experiment: Antiproliferative activity against human MCF7 cells assessed as inhibition of cell proliferation measured after 96 hrs by SRB assay; assay type: functional, cell-based; details: MCF7, 96 h
Staphylococcus aureus [18] = experiment: Antibacterial activity against Staphylococcus aureus ATCC 29213 assessed as reduction in bacterial growth; assay type: functional
[19] = test system: Staphylococcus epidermidis; experiment: Antibacterial activity against Staphylococcus epidermidis assessed as reduction in bacterial growth; assay type: functional
Bacillus subtilis = experiment: Antibacterial activity against Bacillus subtilis assessed as reduction in bacterial growth; assay type: functional
Escherichia coli = experiment: Antibacterial activity against Escherichia coli assessed as bacterial growth inhibition; assay type: functional
MCF7 [20] = experiment: Cytotoxicity against human MCF7 cells […] by MTT reduction assay; assay type: functional, cell-based
HeLa = experiment: cells; details: Homo sapiens
Description: Cytotoxicity against human HeLa cells at 50 uM by MTT reduction assay

LS180 [21] = experiment: cells; details: Homo sapiens
Description: Cytotoxicity against human LS180 cells at 50 uM by MTT reduction assay

A549 [22] = experiment: Anticancer activity against human A549 cells assessed as reduction in cell viability; assay type: functional, cell-based
K562 = experiment: cells; details: Homo sapiens
Description: Cytotoxicity against human K562 cells at 50 uM by MTT reduction assay

MCF7 [23] = experiment: Anticancer activity against human MCF7 cells assessed as reduction in cell viability; assay type: functional, cell-based
A549 [24] = experiment: Anticancer activity against human A549 cells assessed as inhibition of cell proliferation measured after 48 hrs by MTT assay; assay type: functional, cell-based; details: A549, 48 h

Sequence of D(4) dopamine receptor (P21917 whole entry): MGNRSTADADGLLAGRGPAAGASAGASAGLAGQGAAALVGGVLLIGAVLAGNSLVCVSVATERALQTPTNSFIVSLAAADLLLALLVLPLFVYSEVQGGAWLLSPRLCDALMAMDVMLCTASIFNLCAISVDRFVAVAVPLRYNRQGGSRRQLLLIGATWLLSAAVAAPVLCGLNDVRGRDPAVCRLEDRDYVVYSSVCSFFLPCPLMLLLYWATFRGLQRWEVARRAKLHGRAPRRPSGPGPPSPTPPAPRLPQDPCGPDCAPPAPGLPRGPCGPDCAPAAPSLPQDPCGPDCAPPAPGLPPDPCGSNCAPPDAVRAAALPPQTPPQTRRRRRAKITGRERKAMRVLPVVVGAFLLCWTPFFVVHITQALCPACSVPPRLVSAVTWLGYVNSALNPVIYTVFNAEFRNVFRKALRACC

SMILES: Cc1cccc2c1oc(=O)c1cn[nH]c12
zone of inhibition at 20000 µg/mL (Staphylococcus simulans): 14 mm
zone of inhibition at 20000 µg/mL (Staphylococcus aureus [1]): 14 mm
zone of inhibition at 20000 µg/mL (Candida albicans): 14 mm
MIC (Staphylococcus aureus [2]): 100 µM (≈ 20 µg/mL)

SMILES: CN1CCN(Cc2[se]c3c(c2Br)c(=O)oc2ccccc23)CC1
Activity [5]: 84%
pIC50 (MES-SA): 5.03
pIC50 [4]: 4.21

SMILES: CCOc1nc(-c2ccco2)cc2c1c(=O)oc1ccccc12
Activity (RAW264.7): 62%
Activity (Mus musculus): 89%

SMILES: CCc1ccccc1-n1c(N)c(C#N)c2c(c(=O)oc3ccc4ccccc4c32)c1=O
pIC50 (Ehrlich): 3.61
Activity (Rattus norvegicus): 193.07 µmol/L

SMILES: Cc1ccc2nc3c(c(-c4ccccc4)c2c1)c(=O)oc1ccccc13
pIC50 (MCF7 [6]): 7.30

SMILES: CCN(CC)CCCC(C)Nc1cc2c(c(C)n1)c(=O)oc1ccccc12 (stereo unspecified)
pIC50 (Plasmodium falciparum [8]): 5.96
pIC50 (Plasmodium falciparum [9]): 5.96

SMILES: N#CC1=C(N)Oc2c(c(=O)oc3ccccc23)C12C(=O)N(CCCCCCCCCCBr)c1ccccc12 (stereo unspecified)
pIC50 (Bacillus cereus [10]): 4.41
pIC50 [11]: 4.41

SMILES: O=C1CN=C2C3=C(N=CN2N1)Oc1c(c(=O)oc2ccccc12)C3
inhibition zone (IZ) (Serratia marcescens): 21 mm
inhibition zone (IZ) (Penicillium chrysogenum): 19 mm and 22 mm
inhibition zone (IZ) (Proteus mirabilis): 22 mm
inhibition zone (IZ) (Bacillus cereus [12]): 22 mm
zone of inhibition at 20 µg/mL (Aspergillus ochraceus [13]): 22 mm
inhibition zone (IZ) (Staphylococcus aureus [14]): 20 mm
inhibition zone (IZ) (Aspergillus ochraceus [15]): 20 mm

SMILES: COc1cccc(C2C3=C(CCCC3=O)Oc3c2c(=O)oc2ccccc32)c1 (stereo unspecified)
pIC50 (Raji): 4.14

SMILES: O=C1CCCC(=O)C1
pIC50 (LS180 [16]): < 4.00
pIC50 (MCF7 [17]): 4.00

SMILES: CC1=Nc2[nH]n(-c3ccccc3)c(=O)c2C2c3cc(Cl)cc(Cl)c3OC(=O)C12 (stereo unspecified)
MIC (Staphylococcus aureus [18]): 25 µM (≈ 10.4 µg/mL)
MIC [19]: 6.3 µM (≈ 2.61 µg/mL)
MIC (Bacillus subtilis): 6.3 µM (≈ 2.61 µg/mL)
MIC (Escherichia coli): 6.3 µM (≈ 2.61 µg/mL)

More lines, main results first:

pIC50 (MCF7 [3]): 4.39
pIC50 [4]: 5.40
SMILES: O=c1oc2ccccc2c2[se]c(CN3CCOCC3)c(Nc3cccnc3)c12

Ki [7]: 0.078 µM
pKi (D(4) dopamine receptor): 8.82
SMILES: COc1ccc2c3c(c(=O)oc2c1)CN(Cc1ccncc1)CC3

pIC50 (HeLa): 4.53
pIC50 (LS180 [21]): < 4.00
pIC50 (A549 [22]): 6.85
pIC50 (K562): 4.60
SMILES: O=C1CCCc2nc3c(c(-c4ccccc4[N+](=O)[O-])c21)c(=O)oc1ccccc13
pIC50 (MCF7 [20]): 4.23

pIC50 (MCF7 [23]): 4.31
SMILES: Cc1c(-c2nnn[nH]2)c(=O)oc2c1c(=O)oc1ccccc12

pIC50 (A549 [24]): 7.30
SMILES: Cc1ccc2c(c1)C(c1ccccc1)c1c(c3ccccc3oc1=O)N2 (stereo unspecified)
